# Laboratory results taken from US10501479B2, “Benzenesulfonyl-asymmetric ureas and medical uses thereof” (HELSINN HEALTHCARE SA, priority 2016, dated 2019).
# Where “and” joins values, the source holds several entries; their conditions need not be identical. Identical values can stand only once. Like-named read-outs stand apart in the source and are kept apart here.
# Legend:
# [1] = Plasma protein binding (PPB), mouse; assay type: in vitro ADME
# [2] = Metabolic stability in human liver microsomes; assay type: in vitro ADME
# Method in brief: (§1)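 Test compounds were incubated with liver microsomes in 100 mM potassium phosphate buffer, pH 7.4, at 37 °C, with reactions started by an NADPH regenerating system after a 5 min preincubation. Samples taken at 0, 10, 30 and 90 min were quenched cold, centrifuged, and parent remaining was quantified by LC-MS/MS.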
# [3] = target: T1, recombinant human ghrelin receptor (HEK293/GRLN) (Homo sapiens, UniProt Q92847); experiment: Ghrelin inverse agonist potency (EC50) with IP-1 (IP-One HTRF) assay; assay type: cell-based; settings: IP-1 assay
# T1 construct: expressed in transfected cells
# Method in brief: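 HEK293/GRLN cells were seeded 18-22 hours before the test, then exposed to compound in stimulation buffer for 1 hour at 37° C, 5% CO2. IP-1 was detected by IP-One HTRF (IP1-d2 plus Tb-cryptate, 1 hour RT), reading 620 and 665 nm; the inverse agonist EC50 was derived from this.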
# [4] = Metabolic stability in mouse liver microsomes; assay type: in vitro ADME
# Method in brief: as §1
# [5] = Plasma protein binding (PPB), human; assay type: in vitro ADME; settings: read-out: PPB (H) (converted)
# [6] = target: T2, GHSR-1a (HEK293/GHSR1a cell line) (Homo sapiens, UniProt Q92847); experiment: Ghrelin agonist potency (EC50) with calcium FLIPR assay; assay type: cell-based; settings: HEK293/GHSR1a, read-out: Activity EC50/EMax: EC50 (ghrelin agonist potency)
# T2 construct: expressed in transfected cells; host or cells: HEK293/GHSR1a cell line
# Method in brief: (§2)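 Cells seeded 24 h before the run were loaded with calcium dye for 30-60 min at room temperature or 37° C. For agonism, compound was added at t=20 sec and the calcium signal followed for 2 minutes. For antagonism, compound plus ghrelin (10 nM) went on at t=20 sec, and IC50 reflected the drop in ghrelin response.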
# [7] = target: T2, GHSR-1a (HEK293/GHSR1a cell line); experiment: Ghrelin antagonist potency (IC50) with calcium FLIPR assay, ghrelin 10 nM; assay type: cell-based
# Method in brief: as §2
# [8] = Metabolic stability in rat liver microsomes; assay type: in vitro ADME
# Description: (§3) Metabolic Stability Study
# (§4) The metabolic stability of compounds in human, dog, rat and mouse liver microsomes was performed according the experimental conditions reported below:
# (§5) • a) Prepare the following 5 stock solutions: • 1. Test compound stock solutions: dilute 10 mM solution of dextromethorphan (Dtr) in DMSO, 10 mM solution of diphenhydramine (DPA) in DMSO, 10 mM solution of omeprazole (Ome) in DMSO, 10 mM solution of verapamil (Ver) in DMSO, and 10 mM of an inverse agonist compound in DMSO to 0.25 mM solution each with acetonitrile/water (70/30). • 2. Buffer: 100 mM potassium phosphate Buffer (PBS) at pH 7.4 • 3. Liver microsomes (20 mg/ml): Thaw in 37° C. water bath quickly • 4. 2000 μL: of NADPH regenerating system (1.3 mM). Place this system on ice before use:
# (§6) • 5. […] The test compound concentration in the wells, measured by LC-MS/MS, represents the concentration at time=0. • f) To determine the test compound concentration when t≠0, pre-incubate the NADPH regenerating system and the incubation plate containing the remaining 320 μL of incubation mixture (microsomes protein and test compound) for 5 minutes at 37° C. • g) Start the incubation reaction by adding 80 μL NADPH regenerating system to each well containing the remaining 320 μL incubation mixture. • h) After 10 min., 30 min., and 90 min. of incubation at 37° C., transfer 100 μL of the incubation mixture (microsomes protein, test compound, and NADPH) into the wells of a stop plate pre-filled with 300 μL of the cold quench solution. Shake well. • i) Centrifuge the stop plate at 5000×g for 10 minutes. Collect and dilute the supernatant 3 times with distilled water. Sample and analyze the test compound concentration for all the wells by LC-MS/MS. Animal PK Studies via i.v. (intravenous), p.o. (orally) and s.c. (subcutaneous) administrations
# [9] = Metabolic stability in dog liver microsomes; assay type: in vitro ADME
# Description: as §3, §4, §5, §6
# [10] = Animal PK study in mouse via i.v., p.o. and s.c. administration; assay type: in vivo
# Description: All treated animals received a single dose of a test compound (either through i.v., p.o., or s.c. administration) according to the regimen shown in the following table:
# For oral dose groups, appropriate amount of test compound was prepared in the following formulation carrier: 1% DMSO (increase to 5% maximum if necessary) and 0.5% Methycellulose. Each mouse or rat received by oral gavage 10 mL/kg of the formulation mixture.
# For i.v. and s.c dose groups, appropriate amount of test compound was dissolved in 1% DMSO (increase to 5% maximum if necessary), 99% of 20% HP-β-Cyclodextron (w/v). The pH was adjusted accordingly. Each mouse or rat received 5 mL/kg of the formulation mixture. i.v. dose was administered by tail vein injection. Subcutaneous injection was administered over the shoulders, into the loose skin over the neck. At designated time points (e.g., i.v. and s.c.: 0.083, 0.25, 0.5, 1, 2, 4, 8 and 24 hrs; p.o.: 0.25, 0.5, 1, 2, 4, 8 and 24 hrs), systemic samples of blood (50 μL in mouse or 500 μL in rat) were collected by puncture (submandibular vein in mouse or jugular vein in rat) into vacutainers containing EDTA-K2 as anti-coagulant. The blood was centrifuged at 6000 rpm for 8 min at 4° C. to obtain plasma. All plasma samples were stored at −20° C. All plasma samples were added to acetonitrile for protein precipitation and quantitatively analyzed by LC-MS/MS.
# [11] = HEK293/GRLN, read-out: Activity EC50 (ghrelin inverse agonist potency)
# [12] = HEK293/GHSR1a, ghrelin 10 nM, read-out: Activity IC50 (ghrelin antagonist potency)
# [13] = inverse agonist potency, read-out: EC50 (Activity)
# [14] = ghrelin antagonist potency, read-out: IC50 (Activity)
# T2 sequence (Q92847 whole entry): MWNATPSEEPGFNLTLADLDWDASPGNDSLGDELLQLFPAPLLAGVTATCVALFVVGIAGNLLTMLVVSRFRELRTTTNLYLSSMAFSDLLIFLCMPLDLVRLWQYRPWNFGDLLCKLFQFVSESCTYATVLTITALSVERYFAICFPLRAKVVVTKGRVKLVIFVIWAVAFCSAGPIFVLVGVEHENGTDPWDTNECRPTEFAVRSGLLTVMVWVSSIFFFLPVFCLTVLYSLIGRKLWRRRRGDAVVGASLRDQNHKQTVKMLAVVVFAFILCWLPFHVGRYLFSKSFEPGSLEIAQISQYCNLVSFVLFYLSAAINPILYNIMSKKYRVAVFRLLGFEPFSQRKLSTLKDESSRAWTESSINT
# T1 sequence (Q92847 whole entry): as above
SMILES,fraction unbound [1],Metabolic Stability Study H = human [2],"EC50 [3, 11]",Metabolic Stability Study M = mouse [4],fraction unbound [5],EC50 [6],"IC50 [7, 12]",Metabolic Stability Study R = rat [8],Metabolic Stability Study D = dog [9],"EC50 [3, 13]","IC50 [7, 14]",PK F [10],PK CLiv ([10]; i.v.),PK Vdiv ([10]; i.v.),PK t1/2iv ([10]; i.v.),PK CLpo ([10]; p.o.),PK Vdpo ([10]; p.o.),PK t1/2po ([10]; p.o.)
"COc1cc(S(=O)(=O)Cc2ccc3c(c2)CC(C)NC3)ccc1NC(=O)NC(C)c1ccccc1 (stereo not drawn) [H1441, 1-(2-methoxy-4-(((3-methyl-1,2,3,4-tetrahydroisoquinolin-6-yl)methyl)sulfonyl)phenyl)-3-(1-phenylethyl)urea]",0.045,17.3 µL/min/mg,4.3 nM and 3.3 nM,16.4 µL/min/mg,0.0245,> 30 µM,14.9 nM and 40.4 nM,,,,,,,,,,,
"C[C@@H](NC(=O)Nc1ccc(S(=O)(=O)Cc2ccc3c(c2)CNC3)cc1)c1ccccc1 [H1214, (R)-1-(4-((isoindolin-5-ylmethyl)sulfonyl)phenyl)-3-(1-phenylethyl)urea]",,16.6 µL/min/mg,,21.4 µL/min/mg,,,,18 µL/min/mg,< 10 µL/min/mg,147 nM,278 nM,,,,,,,
"COc1cc(S(=O)(=O)Cc2ccc3c(c2)CNC3)ccc1NC(=O)NC(C)c1cccc2ccccc12.O=C(O)C(F)(F)F (stereo not drawn) [H1419, 1-(4-((isoindolin-5-ylmethyl)sulfonyl)-2-methoxyphenyl)-3-(1-(naphthalen-1-yl)ethyl)urea]",0.0031,33.1 µL/min/mg,0.5 nM,45.1 µL/min/mg,0.0041,> 30 µM,4.4 nM,,,,,,,,,,,
"CC(C)(N)Cc1ccc(NS(=O)(=O)c2ccc(NC(=O)NCc3ccccc3)cc2)cc1.Cl [H0993, N-(4-(2-amino-2-methylpropyl)phenyl)-4-(3-benzylureido) benzenesulfonamide]",,18.5 µL/min/mg,,14.3 µL/min/mg,,,,15.1 µL/min/mg,< 10 µL/min/mg,21 nM,288 nM,0.4%,2.15 L/h/kg,4.31 L/kg,1.39 h,438.1 L/h/kg,2550 L/kg,4.03 h
"COc1cc(S(=O)(=O)Cc2ccc3c(c2)CNC3)ccc1NC(=O)NC(C)c1ccccc1F.O=C(O)C(F)(F)F (stereo not drawn) [H1420, 1-(1-(2-fluorophenyl)ethyl)-3-(4-((isoindolin-5-ylmethyl)sulfonyl)-2-methoxyphenyl)urea]",0.0461,17.4 µL/min/mg,1 nM,50.6 µL/min/mg,0.028,> 30 µM,22 nM,,,,,,,,,,,
"CC(NC(=O)Nc1ccc(S(=O)(=O)Cc2ccc3c(c2)CNC3)cc1)c1ccccc1Cl.Cl (stereo not drawn) [H1261, 1-(1-(2-chlorophenyl)ethyl)-3-(4-((isoindolin-5-ylmethyl)sulfonyl)phenyl)urea]",0.019,48.8 µL/min/mg,2.2 nM,23 µL/min/mg,0.045,> 30 µM,1.57 nM,,,,,,,,,,,
"C[C@H](NC(=O)Nc1ccc(S(=O)(=O)Nc2ccc(CC(C)(C)N)cc2)cc1)c1cccc(Cl)c1Cl.Cl [H0943, (S)-N-(4-(2-amino-2-methylpropyl)phenyl)-4-(3-(1-(2,3-dichlorophenyl)ethyl)ureido) benzenesulfonamide]",,10.6 µL/min/mg,,< 10 µL/min/mg,,,,11.7 µL/min/mg,< 10 µL/min/mg,2.5 nM,7.8 nM,,,,,,,
"CN(C)C(C)(C)Cc1ccc(NS(=O)(=O)c2ccc(NC(=O)NCc3cccc(Cl)c3Cl)cc2)cc1 [H0995, 4-(3-(2,3-dichlorobenzyl)ureido)-N-(4-(2-(dimethylamino)-2-methylpropyl)phenyl) benzenesulfonamide]",,54.5 µL/min/mg,,194.6 µL/min/mg,,,,92.4 µL/min/mg,52.7 µL/min/mg,2.52 nM,32.1 nM,,,,,,,
"COc1cc(S(=O)(=O)Cc2ccc3c(c2)CNC3)ccc1NC(=O)NC(C)c1ccccc1.Cl (stereo not drawn) [H1383, 1-(4-((isoindolin-5-ylmethyl)sulfonyl)-2-methoxyphenyl)-3-(1-phenylethyl)urea]",,21 µL/min/mg,2.01 nM,91.9 µL/min/mg,,> 30 µM,11.9 nM,48.2 µL/min/mg,27.8 µL/min/mg,,,,,,,,,
"CC(C)(N)Cc1ccc(CS(=O)(=O)c2ccc(NC(=O)NCc3cccc(Cl)c3Cl)cc2)cc1 [H0996, 1-(4-((4-(2-amino-2-methylpropyl)benzyl)sulfonyl)phenyl)-3-(2,3-dichlorobenzyl)urea]",,27.5 µL/min/mg,,125.4 µL/min/mg,,,,77.8 µL/min/mg,< 10 µL/min/mg,64 nM,461 nM,,,,,,,
"COc1ccc([C@H](C)NC(=O)Nc2ccc(S(=O)(=O)Nc3ccc(CC(C)(C)N)cc3)cc2)c(Cl)c1Cl [H0937, (S)-N-(4-(2-amino-2-methylpropyl)phenyl)-4-(3-(1-(2,3-dichloro-4-methoxyphenyl)ethyl)ureido) benzenesulfonamide]",,H = <10 M = <10 R = <10 D = <10 μL/min/mg,,H = <10 M = <10 R = <10 D = <10 μL/min/mg,,,,H = <10 M = <10 R = <10 D = <10 μL/min/mg,H = <10 M = <10 R = <10 D = <10 μL/min/mg,12.7 nM,84 nM,,,,,,,
"COc1ccccc1C(C)NC(=O)Nc1ccc(S(=O)(=O)Cc2ccc3c(c2)CNC3)cc1 (stereo not drawn) [H1382, 1-(4-((isoindolin-5-ylmethyl)sulfonyl)phenyl)-3-(1-(2-methoxyphenyl)ethyl)urea]",,42.4 µL/min/mg,2.68 nM,43.4 µL/min/mg,,> 30 µM,34.3 nM,,41.9 µL/min/mg,,,,,,,,,
